Data: patent US12667106B2, “Stabilized mutants of quorum quenching lactonase and use thereof in treatment of pathogens” (priority 2019, dated 2026)

Legend:
[1] = target: putative parathion hydrolase (PPH) from M. tuberculosis, variant PPH_R2:P4-D5, G58V (G59V in SEQ ID NO: 1 numbering; SEQ ID NO: 2), MBP fusion SEQ ID NO: 11 (Mycobacterium tuberculosis, UniProt P9WHN9, G55V); format: biochemical; settings: pH 8.3
[2] = target: putative parathion hydrolase (PPH) from M. tuberculosis, variant PPH_R2:P8-D12, H171Y (H172Y in SEQ ID NO: 1 numbering; SEQ ID NO: 3), MBP fusion SEQ ID NO: 12 (Mycobacterium tuberculosis, UniProt P9WHN9, H168Y); format: biochemical; settings: pH 8.3

## CCCC(=O)CC(=O)N[C@H]1CCOC1=O [C6-oxo-HSL, N-(3-oxo-hexanoyl)-homoserine lactone]
[1]
  kcat: 18.66 ± 1.16 s⁻¹
[2]
  kcat: 10.16 ± 1.46 s⁻¹
